# Laboratory results: PubChem BioAssay (NCI)
#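 Growth conditions: 96-well plates. Treatment: test compound, 48 hours, 5 concentrations. Analysis: linear interpolation between bracketing concentrations; unreached endpoints set to highest concentration. TGI is the concentration that stops growth completely.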
# What was measured:
# Experiment in all cases: NCI-60 cell line screen, 48 h
# 786-0 renal = test system: 786-0 renal
# A498 renal = test system: A498 renal
# A549 NSCLC = test system: A549 NSCLC
# ACHN renal = test system: ACHN renal
# CAKI-1 renal = test system: CAKI-1 renal
# CCRF-CEM leukemia = test system: CCRF-CEM leukemia
# COLO 205 colon = test system: COLO 205 colon
# DLD-1 colon = test system: DLD-1 colon
# DMS 114 small cell lung = test system: DMS 114 small cell lung
# DMS 273 small cell lung = test system: DMS 273 small cell lung
# EKVX NSCLC = test system: EKVX NSCLC
# HCC-2998 colon = test system: HCC-2998 colon
# HCT-15 colon = test system: HCT-15 colon
# HL-60(TB) leukemia = test system: HL-60(TB) leukemia
# HOP-18 NSCLC = test system: HOP-18 NSCLC
# HOP-62 NSCLC = test system: HOP-62 NSCLC
# HT29 colon = test system: HT29 colon
# IGROV1 ovarian = test system: IGROV1 ovarian
# K-562 leukemia = test system: K-562 leukemia
# KM12 colon = test system: KM12 colon
# LXFL 529 NSCLC = test system: LXFL 529 NSCLC
# M14 melanoma = test system: M14 melanoma
# M19-MEL melanoma = test system: M19-MEL melanoma
# MALME-3M melanoma = test system: MALME-3M melanoma
# MOLT-4 leukemia = test system: MOLT-4 leukemia
# NCI-H226 lung = test system: NCI-H226 lung
# NCI-H23 lung = test system: NCI-H23 lung
# NCI-H522 lung = test system: NCI-H522 lung
# OVCAR-3 ovarian = test system: OVCAR-3 ovarian
# OVCAR-4 ovarian = test system: OVCAR-4 ovarian
# OVCAR-5 ovarian = test system: OVCAR-5 ovarian
# OVCAR-8 ovarian = test system: OVCAR-8 ovarian
# RPMI-8226 leukemia = test system: RPMI-8226 leukemia
# RXF 393 renal = test system: RXF 393 renal
# RXF-631 renal = test system: RXF-631 renal
# SF-268 CNS = test system: SF-268 CNS
# SF-295 CNS = test system: SF-295 CNS
# SF-539 CNS = test system: SF-539 CNS
# SK-MEL-2 melanoma = test system: SK-MEL-2 melanoma
# SK-MEL-28 melanoma = test system: SK-MEL-28 melanoma
# SK-MEL-5 melanoma = test system: SK-MEL-5 melanoma
# SK-OV-3 ovarian = test system: SK-OV-3 ovarian
# SN12C renal = test system: SN12C renal
# SNB-19 CNS = test system: SNB-19 CNS
# SNB-75 CNS = test system: SNB-75 CNS
# SNB-78 CNS = test system: SNB-78 CNS
# SW-620 colon = test system: SW-620 colon
# TK-10 renal = test system: TK-10 renal
# U251 CNS = test system: U251 CNS
# UACC-257 melanoma = test system: UACC-257 melanoma
# UACC-62 melanoma = test system: UACC-62 melanoma
# UO-31 renal = test system: UO-31 renal
# XF 498 CNS = test system: XF 498 CNS
# BT-549 breast = test system: BT-549 breast
# DU-145 prostate = test system: DU-145 prostate
# HCT-116 colon = test system: HCT-116 colon
# HOP-92 NSCLC = test system: HOP-92 NSCLC
# HS 578T breast = test system: HS 578T breast
# KM20L2 colon = test system: KM20L2 colon
# LOX IMVI melanoma = test system: LOX IMVI melanoma
# MCF7 breast = test system: MCF7 breast
# MDA-MB-231 breast = test system: MDA-MB-231 breast
# MDA-MB-435 = test system: MDA-MB-435
# MDA-N = test system: MDA-N
# NCI-H460 lung = test system: NCI-H460 lung
# PC-3 prostate = test system: PC-3 prostate
# SR leukemia = test system: SR leukemia
structure (smiles),measurement,setting,value
Cc1ccc(N=Nc2ccc(N(CCC#N)CCC#N)cc2C)c(Br)c1,TGI,786-0 renal,61.5 µM
same,TGI,A498 renal,> 100 µM
same,TGI,A549 NSCLC,> 100 µM
same,TGI,ACHN renal,> 100 µM
same,TGI,CAKI-1 renal,24.6 µM
same,TGI,CCRF-CEM leukemia,> 100 µM
same,TGI,COLO 205 colon,> 100 µM
same,TGI,DLD-1 colon,> 100 µM
same,TGI,DMS 114 small cell lung,> 100 µM
same,TGI,DMS 273 small cell lung,41.4 µM
same,TGI,EKVX NSCLC,> 100 µM
same,TGI,HCC-2998 colon,59.4 µM
same,TGI,HCT-15 colon,> 100 µM
same,TGI,HL-60(TB) leukemia,65.7 µM
same,TGI,HOP-18 NSCLC,> 100 µM
same,TGI,HOP-62 NSCLC,93 µM
same,TGI,HT29 colon,27.4 µM
same,TGI,IGROV1 ovarian,> 100 µM
same,TGI,K-562 leukemia,> 100 µM
same,TGI,KM12 colon,55.8 µM
same,TGI,LXFL 529 NSCLC,> 100 µM
same,TGI,M14 melanoma,92.3 µM
same,TGI,M19-MEL melanoma,> 100 µM
same,TGI,MALME-3M melanoma,> 100 µM
same,TGI,MOLT-4 leukemia,45.1 µM
same,TGI,NCI-H226 lung,61.5 µM
same,TGI,NCI-H23 lung,> 100 µM
same,TGI,NCI-H522 lung,> 100 µM
same,TGI,OVCAR-3 ovarian,> 100 µM
same,TGI,OVCAR-4 ovarian,> 100 µM
same,TGI,OVCAR-5 ovarian,> 100 µM
same,TGI,OVCAR-8 ovarian,> 100 µM
same,TGI,RPMI-8226 leukemia,35.8 µM
same,TGI,RXF 393 renal,46.1 µM
same,TGI,RXF-631 renal,81.3 µM
same,TGI,SF-268 CNS,> 100 µM
same,TGI,SF-295 CNS,93.1 µM
same,TGI,SF-539 CNS,> 100 µM
same,TGI,SK-MEL-2 melanoma,> 100 µM
same,TGI,SK-MEL-28 melanoma,> 100 µM
same,TGI,SK-MEL-5 melanoma,56.5 µM
same,TGI,SK-OV-3 ovarian,> 100 µM
same,TGI,SN12C renal,> 100 µM
same,TGI,SNB-19 CNS,> 100 µM
same,TGI,SNB-75 CNS,> 100 µM
same,TGI,SNB-78 CNS,> 100 µM
same,TGI,SW-620 colon,> 100 µM
same,TGI,TK-10 renal,66.3 µM
same,TGI,U251 CNS,> 100 µM
same,TGI,UACC-257 melanoma,> 100 µM
same,TGI,UACC-62 melanoma,> 100 µM
same,TGI,UO-31 renal,> 100 µM
same,TGI,XF 498 CNS,40.6 µM
O=C(CC1(O)C(=O)Nc2c(Cl)cc(Cl)cc21)c1ccc(Br)cc1Br (centres undefined),TGI,786-0 renal,25.5 µM
same,TGI,A498 renal,40 µM
same,TGI,A549 NSCLC,57.4 µM
same,TGI,ACHN renal,27.1 µM
same,TGI,BT-549 breast,22.3 µM
same,TGI,CAKI-1 renal,16.2 µM
same,TGI,CCRF-CEM leukemia,3.21 µM
same,TGI,COLO 205 colon,16.9 µM
same,TGI,DLD-1 colon,24.1 µM
same,TGI,DMS 114 small cell lung,20.3 µM
same,TGI,DMS 273 small cell lung,22.9 µM
same,TGI,DU-145 prostate,32.3 µM
same,TGI,EKVX NSCLC,34.6 µM
same,TGI,HCC-2998 colon,30.6 µM
same,TGI,HCT-116 colon,15.2 µM
same,TGI,HCT-15 colon,22.2 µM
same,TGI,HL-60(TB) leukemia,18.1 µM
same,TGI,HOP-18 NSCLC,27.9 µM
same,TGI,HOP-62 NSCLC,36.5 µM
same,TGI,HOP-92 NSCLC,9.75 µM
same,TGI,HS 578T breast,26.5 µM
same,TGI,HT29 colon,40.9 µM
same,TGI,IGROV1 ovarian,34.7 µM
same,TGI,K-562 leukemia,9 µM
same,TGI,KM12 colon,27.9 µM
same,TGI,KM20L2 colon,33.9 µM
same,TGI,LOX IMVI melanoma,15 µM
same,TGI,M14 melanoma,18.5 µM
same,TGI,M19-MEL melanoma,25.1 µM
same,TGI,MALME-3M melanoma,23.7 µM
same,TGI,MCF7 breast,29.6 µM
same,TGI,MDA-MB-231 breast,41.3 µM
same,TGI,MDA-MB-435,25.5 µM
same,TGI,MDA-N,21.8 µM
same,TGI,MOLT-4 leukemia,17.3 µM
same,TGI,NCI-H226 lung,34.8 µM
same,TGI,NCI-H23 lung,21.2 µM
same,TGI,NCI-H460 lung,28.9 µM
same,TGI,NCI-H522 lung,8.05 µM
same,TGI,OVCAR-3 ovarian,43.8 µM
same,TGI,OVCAR-4 ovarian,29.5 µM
same,TGI,OVCAR-5 ovarian,31.9 µM
same,TGI,OVCAR-8 ovarian,17.6 µM
same,TGI,PC-3 prostate,31.4 µM
same,TGI,RPMI-8226 leukemia,21.6 µM
same,TGI,RXF 393 renal,26.2 µM
same,TGI,RXF-631 renal,9.25 µM
same,TGI,SF-268 CNS,24 µM
same,TGI,SF-295 CNS,34.9 µM
same,TGI,SF-539 CNS,36.5 µM
same,TGI,SK-MEL-2 melanoma,28.9 µM
same,TGI,SK-MEL-28 melanoma,27.7 µM
same,TGI,SK-MEL-5 melanoma,14.6 µM
same,TGI,SK-OV-3 ovarian,44.2 µM
same,TGI,SN12C renal,28.5 µM
same,TGI,SNB-19 CNS,41 µM
same,TGI,SNB-75 CNS,36.6 µM
same,TGI,SNB-78 CNS,> 74.9 µM
same,TGI,SR leukemia,> 22 µM
same,TGI,SW-620 colon,10.7 µM
same,TGI,TK-10 renal,32 µM
same,TGI,U251 CNS,28.5 µM
same,TGI,UACC-257 melanoma,22.9 µM
same,TGI,UACC-62 melanoma,25.6 µM
same,TGI,UO-31 renal,29.5 µM
same,TGI,XF 498 CNS,23.8 µM
